In one assay the target is T1, electric eel AChE (Electrophorus electricus, UniProt O42275). As to the kind of experiment: biochemical.
T1 sequence (O42275 24-633): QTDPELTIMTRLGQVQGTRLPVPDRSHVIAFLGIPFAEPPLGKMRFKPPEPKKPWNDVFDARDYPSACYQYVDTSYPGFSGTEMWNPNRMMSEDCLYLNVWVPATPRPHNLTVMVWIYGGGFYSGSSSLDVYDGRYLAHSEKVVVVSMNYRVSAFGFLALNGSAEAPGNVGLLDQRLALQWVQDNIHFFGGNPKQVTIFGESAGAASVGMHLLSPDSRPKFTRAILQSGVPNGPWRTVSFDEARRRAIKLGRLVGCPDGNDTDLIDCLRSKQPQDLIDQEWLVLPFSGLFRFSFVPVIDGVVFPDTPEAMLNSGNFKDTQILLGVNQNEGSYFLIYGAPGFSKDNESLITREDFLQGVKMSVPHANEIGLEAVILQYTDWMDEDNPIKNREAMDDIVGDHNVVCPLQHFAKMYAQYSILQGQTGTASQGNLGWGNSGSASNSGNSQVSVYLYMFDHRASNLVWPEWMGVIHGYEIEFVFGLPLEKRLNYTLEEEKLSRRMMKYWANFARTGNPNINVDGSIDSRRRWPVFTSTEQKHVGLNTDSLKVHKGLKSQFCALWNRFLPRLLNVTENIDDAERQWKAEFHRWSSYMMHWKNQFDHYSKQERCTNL
Conditions: not given
Broadly, the IC50 is the concentration that gives 50% inhibition. Lower therefore signals inhibition by little substance. With `COc1cc2c(cc1OC)C(=O)C(CC1CCN(Cc3c(Cl)cncc3Cl)CC1)C2` (centres unmarked) [Analog 8, 2-((1-((3,5-dichloropyridin-4-yl)methyl)piperidin-4-yl)methyl)-5,6-dimethoxy-2,3-dihydro-1H-inden-1-one], the IC50 came out at 4320 nM.

The compound `COc1cc2c(cc1OC)C(=O)C(CC1CCN(Cc3ccnc(Cl)c3)CC1)C2` (centres unmarked) [Analog 5, 2-((1-((2-chloropyridin-4-yl)methyl)piperidin-4-yl)methyl)-5,6-dimethoxy-2,3-dihydro-1H-inden-1-one] registered an IC50 of 2060 nM.

On to `COc1cc2c(cc1OC)C(=O)C(CC1CCN(Cc3cccnc3Br)CC1)C2` (centres unmarked) [Analog 11, 2-((1-((2-bromopyridin-3-yl)methyl)piperidin-4-yl)methyl)-5,6-dimethoxy-2,3-dihydro-1H-inden-1-one], for which the IC50 is 1120 nM.

Turning to `COc1cc2c(cc1OC)C(=O)C(CC1CCN(Cc3ccccn3)CC1)C2` (centres unmarked) [Analog 1, 5,6-dimethoxy-2-((1-(pyridin-2-ylmethyl)piperidin-4-yl)methyl)-2,3-dihydro-1H-inden-1-one], the 50% inhibitory concentration (IC50) amounted to 793 nM.

Turning to `COc1cc2c(cc1OC)C(=O)C(CC1CCN(Cc3ccnc4ccccc34)CC1)C2` (centres unmarked) [Analog 4, 5,6-dimethoxy-2-((1-(quinolin-4-ylmethyl)piperidin-4-yl)methyl)-2,3-dihydro-1H-inden-1-one], half-maximal inhibition (IC50) was put at 356 nM.

`COc1cc2c(cc1OC)C(=O)C(CC1CCN(Cc3ccnc(Br)c3)CC1)C2` (centres unmarked) [Analog 6, 2-((1-((2-bromopyridin-4-yl)methyl)piperidin-4-yl)methyl)-5,6-dimethoxy-2,3-dihydro-1H-inden-1-one] displayed an IC50 of 1800 nM.

The compound `COc1cc2c(cc1OC)C(=O)C(CC1CCN(Cc3cccnc3)CC1)C2` (centres unmarked) [Analog 2, 5,6-dimethoxy-2-((1-(pyridin-3-ylmethyl)piperidin-4-yl)methyl)-2,3-dihydro-1H-inden-1-one] showed an IC50 of 51 nM.

The compound `COc1cc2c(cc1OC)C(=O)C(CC1CCN(Cc3ccncc3)CC1)C2` (centres unmarked) [Analog 3, 5,6-dimethoxy-2-((1-(pyridin-4-ylmethyl)piperidin-4-yl)methyl)-2,3-dihydro-1H-inden-1-one] displayed an IC50 of 334 nM.

In the case of `COc1cc2c(cc1OC)C(=O)C(CC1CCN(Cc3cccnc3Cl)CC1)C2` (centres unmarked) [Analog 10, 2-((1-((2-chloropyridin-3-yl)methyl)piperidin-4-yl)methyl)-5,6-dimethoxy-2,3-dihydro-1H-inden-1-one], the IC50 stood at 414 nM.

`COc1cc2c(cc1OC)C(=O)C(CC1CCN(Cc3cccnc3F)CC1)C2` (centres unmarked) [Analog 9, 2-((1-((2-fluoropyridin-3-yl)methyl)piperidin-4-yl)methyl)-5,6-dimethoxy-2,3-dihydro-1H-inden-1-one]: the IC50 turned out to be 718 nM.

Compound `COc1cc2c(cc1OC)C(=O)C(CC1CCN(Cc3ccc(C)nc3)CC1)C2` (centres unmarked) [Analog 12, 5,6-dimethoxy-2-((1-((6-methylpyridin-3-yl)methyl)piperidin-4-yl)methyl)-2,3-dihydro-1H-inden-1-one] showed an IC50 of 928 nM.

In turn, `COc1cc2c(cc1OC)C(=O)C(CC1CCN(Cc3ccncc3Cl)CC1)C2` (centres unmarked) [Analog 7, 2-((1-((3-chloropyridin-4-yl)methyl)piperidin-4-yl)methyl)-5,6-dimethoxy-2,3-dihydro-1H-inden-1-one] gave an IC50 of 364 nM.

The target in another assay is T1, electric eel AChE. In words: Kinetic analysis of AChE inhibition. In kind it is biochemical.
Conditions: not given
By Ki is commonly meant the equilibrium dissociation constant of an inhibitor or competing ligand from its target. Low values mean a stronger hold on the target, high ones a looser hold on the target. For the compound `COc1cc2c(cc1OC)C(=O)C(CC1CCN(Cc3cccnc3)CC1)C2` (centres unmarked) [Analog 2, 5,6-dimethoxy-2-((1-(pyridin-3-ylmethyl)piperidin-4-yl)methyl)-2,3-dihydro-1H-inden-1-one], the inhibitory constant (Ki) worked out at 62 nM.

The same assay, now with this note: Lineweaver-Burke double reciprocal plot, electric eel AChE.
Consider `COc1cc2c(cc1OC)C(=O)C(CC1CCN(Cc3cccnc3)CC1)C2` (centres unmarked) [Analog 2, 5,6-dimethoxy-2-((1-(pyridin-3-ylmethyl)piperidin-4-yl)methyl)-2,3-dihydro-1H-inden-1-one], for which the type of inhibition entry is given as “mixed-type inhibition”.
